# Assay results from patent US5876715A, “Antibodies that bind novel carbohydrate ligands (myelorollins) that cause E-selectin dependent cell rolling, and uses thereof” (The Biomembrane Institute, priority 1996, dated 1999).
# Entries after “also recorded” stand apart in the source; their conditions may differ.
# Tests used:
# [1] = target: T1, E-selectin-Ig fusion protein (Homo sapiens, UniProt P16581); experiment: Direct binding of ganglioside-coated latex beads to E-selectin-Ig coated fluorescent beads by flow cytometry; conditions: ganglioside-coated latex beads mixed with E-selectin-Ig fluorescent beads
# T1 construct: Fc is only a tag
# T1 sequence (P16581 22-610): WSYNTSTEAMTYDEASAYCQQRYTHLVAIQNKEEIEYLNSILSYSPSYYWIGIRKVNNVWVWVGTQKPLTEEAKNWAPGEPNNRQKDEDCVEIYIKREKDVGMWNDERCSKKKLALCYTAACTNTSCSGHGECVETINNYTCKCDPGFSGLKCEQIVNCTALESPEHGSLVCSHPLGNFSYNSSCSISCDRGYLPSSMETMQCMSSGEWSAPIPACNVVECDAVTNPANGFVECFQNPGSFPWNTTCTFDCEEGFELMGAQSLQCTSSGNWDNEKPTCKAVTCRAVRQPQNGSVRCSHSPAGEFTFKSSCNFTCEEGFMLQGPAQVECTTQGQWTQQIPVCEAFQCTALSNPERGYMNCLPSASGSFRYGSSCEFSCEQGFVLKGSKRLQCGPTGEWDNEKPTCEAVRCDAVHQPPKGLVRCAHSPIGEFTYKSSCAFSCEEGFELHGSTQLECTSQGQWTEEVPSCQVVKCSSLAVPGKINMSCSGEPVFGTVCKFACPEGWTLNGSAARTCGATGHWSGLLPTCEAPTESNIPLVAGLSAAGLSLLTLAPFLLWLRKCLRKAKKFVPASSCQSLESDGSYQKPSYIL
# Protocol: 5×10^6 polystyrene latex beads (diameter […]) (IDC Spheres™; IDC, Portland, Oreg.) were washed with ethanol by centrifugation. 1 μg of GSL in 50 μL of ethanol was added to the washed beads and the mixture was evaporated under nitrogen stream. The beads were resuspended in 1% BSA in PBS(+) and washed twice by centrifugation. Washed beads were blocked with 3% BSA in PBS(+) at room temperature for 2 hr. After centrifugation, beads were resuspended in 1% BSA in PBS(+) with 0.1% azide and stored at 4° C. Yellow-green fluorescent sulfated latex beads (diameter 1 μm) (Molecular Probes, Inc., Portland, Oreg.) were coated with goat anti-human IgG (Fc-fragment specific) antibody (Jackson Immunoresearch Lab, West Grove, Pa.) according to manufacturer's protocol. After washing 3× with PBS, beads were blocked with 3% BSA in PBS at 4° C. for 2 hr. Blocked beads (about 5×10^8) were mixed with 1.5 mL of E- or P-selectin-Ig fusion protein containing culture supernatant (about 1 μg/mL fusion protein) from CHO transfectants (Handa et al., 1995 Int. J. Oncol. 6:773-781) with a blood mixer at 4° C. for 6-18 hr. This mixing procedure was repeated 3 times more using new culture supernatant containing the fusion protein. After washing with PBS, beads were incubated in 1 mL PBS containing 50 μg human IgG (Jackson Immunoresearch). For preparation of control beads, human IgG was used at 1 μg/mL, instead of fusion protein. The ganglioside-coated beads were mixed with the fluorescent beads at room temperature for various durations. The resulting suspension was subjected to flow cytometric analysis. Conditions of each assay are detailed below.
# Adhesion under conditions of E- or P-selectin-binding to various gangliosides was assessed by a novel, sensitive method using E- or P-selectin-coated fluorescent beads (FIGS. 2 and 3). Adhesion was determined by aggregation of polystyrene beads coated with myelorollin, and selectin-coated fluorescent beads. Gangliosides were coated on non-fluorescent polystyrene beads and mixed with fluorescent beads coated with E- or P-selectin in the presence or absence of EDTA. Since aggregation occurs under brief, strong agitation, the process is neither "static" nor "dynamic" adhesion, in which myelorollin is presented as immovable solid phase. In this system, solid phases containing both myelorollin and selectin are in dynamic condition. Binding was determined by cytofluorometry. Ganglioside fractions used in this experiment were the same as described in Table 1. In addition: Sdiy^2, sialosyl Le^x -Le^x (VI^3 NeuAcV^3 FucIII^3 FucnLc6 Cer); SLe^x (IV^3 NeuAcIII^3 FucnLc4 Cer). These designated structures are based on ^1 H NMR, mass spectrometry. Binding index was defined as mean fluorescence intensity (MFI) of ganglioside fraction divided by MFI of sialylparagloboside (IV^3 NeuAcnLc4 Cer).
# Referring to FIG. 2: open columns, E-selectin-IgG beads. Lighter shaded columns, E-selectin-IgG beads in the presence of 5 mM EDTA. Darker shaded columns, P-selectin-IgG beads. Solid columns, human IgG control beads. The binding of myelorollin to E-selectin beads was completely abolished in the presence of EDTA; myelorollin was unable to bind to P-selectin.
# Binding index was defined as MFI of sample divided by MFI of sialylparagloboside as in FIG. 2. Open columns, E-selectin-IgG beads preincubated with control mouse IgG. Solid columns, E-selectin-IgG beads preincubated with mAb E1C. […]
# [2] = test system: CHO cells permanently expressing E-selectin; conditions: TLC overlay, Stroud et al. 1995, 1996; cited from earlier work
Substance,"binding to E-selectin beads (binding index, MFI relative to sialylparagloboside) [1]",E-selectin binding/adhesion under static conditions in previous studies [2],"binding to E-selectin beads (binding index, MFI relative to sialylparagloboside) ([1]; listed as Str. 1)","binding to E-selectin beads (binding index, MFI relative to sialylparagloboside) ([1]; listed as Str. 3)"
X^3 NeuAcVII^3 FucV^3 FucnLc10 Cer [Fr. 13-1],clear binding; also recorded: bind strongly to E-selectin,capable of binding E-selectin under static conditions,–,–
VI^3 NeuAcnLc6 Cer [Fr. 7],no binding to E-selectin,–,no binding whatsoever,–
X^3 NeuAcVII^3 FucnLc10 Cer [Fr. 12-2],weak adhesion,–,–,–
"VI^3 NeuAcV^3 FucIII^3 FucnLc6 Cer [SLe^x -Le^x, reference compound]",–,–,–,did show binding; also recorded: bound to E-selectin
